Results as given in article PMC5477233 (Chembiochem : a European journal of chemical biology, 2016).
Entries after “also recorded” stand apart in the source; their conditions may differ.

System: human insulin receptor
Assay: in vitro binding to the human insulin receptor
Details: compared with wild-type biosynthetic human insulin (Figure S10)

[(1-^13C=^18O)Phe^B24]human insulin was tested, and the receptor-binding activity was “full insulin receptor binding activity; also recorded: fully active in insulin receptor binding”.
